The supplement of paper PMC11208160

Tests used:
[1] = recombinant barcode read abundance after kanamycin selection (control-corrected) (log10(CPM+1)); higher = more efficient recombination; sequences stand for … in AGTGCAGAGAAAATCGGCCAGTTTTCTCTGCCTGCAGTCCGCATGCCGT…AGATTTATGCAGCGGACTGCCTTTCTCCCAAAGTGATAAACCGGACAGTATCATGGACCGGTTTTCCCGGTAATCCGTATTTGCAAGGTTGGTTTCACT; site = the 11-nt target
Protocol: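 Pooled E. coli target-specificity screen for the IS621 bridge recombinase. Each library plasmid pairs an 11-nt target (CT core) with a bridge RNA whose target-binding loop (9-nt LTG + 4-nt RTG) is reprogrammed; the rest of the 177-nt WT IS621 bridge RNA scaffold is fixed. The plasmid is co-electroporated with a WT donor plasmid; recombinase is induced with 0.1 mM IPTG and recombinants are selected on kanamycin. Recombinant barcodes are sequenced, converted to CPM, averaged over two biological replicates and corrected by the unselected control CPM. Molecule = full bridge RNA written as DNA: LTG = specificity nt 1-9, RTG = reverse complement of specificity nt 8-11, in the WT scaffold.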

[2] = recombinant UMI read abundance after kanamycin selection (control-corrected) (log10(CPM+1)); higher = more efficient recombination; extreme values may be limits of the assay; sequences stand for … in AGTGCAGAGAAAATCGGCCAGTTTTCTCTGCCTGCAGTCCGCATGCCGTGGGACCCCTTGGGTTCTAACCTGTTGCCTAGATTTATGCAGCGGACTGCCTTTCTCCCAAAGTGATAAACCGG…AGGTTGGTTTCACT; site = the 11-nt donor
Summary of the method: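 Reported values are log10(CPM+1) from a pooled Escherichia coli screen of donor and donor-binding-loop pairs for the IS621 bridge recombinase. Selection used IPTG (0.07 mM) plus kanamycin, against unselected plating, each in two replicates. Recombinant UMIs were amplified across the donor–target junction, sequenced, converted to CPM, averaged over replicates and scaled by control-derived factors.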
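Throughout, for recombinant UMI read abundance after kanamycin selection (control-corrected): IS621 bridge recombinase in Escherichia coli cells against a fixed T5 target plasmid.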
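Throughout, for recombinant barcode read abundance after kanamycin selection (control-corrected): IS621 recombinase and bridge RNA in Escherichia coli cells.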

Sequence	recombinant barcode read abundance (log10) [1]	recombinant UMI read abundance (log10) [2]
AAACCGCCTTGGGTTCTAACCTGTTGCCT (site AAACCGCCTAG)	1.11	–
AAACCGCCTTGGGTTCTAACCTGTTGCCT (site AAACGGCCTAG)	0.163	–
AAACGGCCTTGGGTTCTAACCTGTTGCCT (site AAACCGCCTAG)	0.147	–
AAACGGCCTTGGGTTCTAACCTGTTGCCT (site AAACGGCCTAG)	0.522	–
AAACGGTCTTGGGTTCTAACCTGTTGCTA (site AAACGGTCTTA)	1.53	–
AAACGGTCTTGGGTTCTAACCTGTTGCTA (site AAATGGTCTTA)	0.131	–
AAAGCTACTTGGGTTCTAACCTGTTGCCT (site AAAGCTACTAG)	1.11	–
AAAGCTACTTGGGTTCTAACCTGTTGCCT (site AAAGCTCCTAA)	0.124	–
AAAGGGGCTTGGGTTCTAACCTGTTGCCT (site AAAGGGGCTAG)	2.2	–
AAAGGGGCTTGGGTTCTAACCTGTTGCCT (site TTGCATTCTCA)	0.155	–
AAAGGGTCTTGGGTTCTAACCTGTTGCCT (site AAAGGGTCTAG)	1.8	–
AAAGGGTCTTGGGTTCTAACCTGTTGCCT (site ACAGGGTCTAG)	0.327	–
AAAGGGTCTTGGGTTCTAACCTGTTGCCT (site AGAGGGTCTAG)	0.0828	–
AAAGGGTCTTGGGTTCTAACCTGTTGCCT (site ATAGGGTCTAG)	0.689	–
AAAGGTCCTTGGGTTCTAACCTGTTGCAG (site AAAGGTCCTCT)	2.69	–
AAAGGTCCTTGGGTTCTAACCTGTTGCAG (site CTTTAGTCTTA)	0.0927	–
AAAGGTTCTTGGGTTCTAACCTGTTGCCT (site AAAGGTTCTAG)	1.58	–
AAAGGTTCTTGGGTTCTAACCTGTTGCCT (site ACAGGTTCTAG)	0.0935	–
AAAGGTTCTTGGGTTCTAACCTGTTGCCT (site AGAGGTTCTAG)	0.0624	–
AAAGGTTCTTGGGTTCTAACCTGTTGCCT (site ATAGGTTCTAG)	0.126	–
AAAGTACCTTGGGTTCTAACCTGTTGCCT (site AAAGTACCTAG)	2	–
AAAGTACCTTGGGTTCTAACCTGTTGCCT (site CAAGTACCTAG)	0.741	–
AAAGTACCTTGGGTTCTAACCTGTTGCCT (site GAAGTACCTAG)	0.0449	–
AAAGTACCTTGGGTTCTAACCTGTTGCCT (site TAAGTACCTAG)	1.16	–
AAAGTCCCTTGGGTTCTAACCTGTTGCCT (site AAAGTCCCTAG)	1.03	–

Sequence	recombinant barcode read abundance (log10) [1]	recombinant UMI read abundance (log10) [2]
AAAGTCCCTTGGGTTCTAACCTGTTGCCT (site CAAGTCCCTAG)	0.361	–
AAAGTCCCTTGGGTTCTAACCTGTTGCCT (site GAAGTCCCTAG)	0.218	–
AAAGTCCCTTGGGTTCTAACCTGTTGCCT (site TAAGTCCCTAG)	0.481	–
AAATGGTCTTGGGTTCTAACCTGTTGCTA (site AAACGGTCTTA)	0.814	–
AAATGGTCTTGGGTTCTAACCTGTTGCTA (site AAATGGTCTTA)	1.69	–
AAATGTACTTGGGTTCTAACCTGTTGCCT (site AAATGTACTAG)	1.04	–
AAATGTACTTGGGTTCTAACCTGTTGCCT (site TGGGTCCCTTC)	0.0555	–
AACAATGCTTGGGTTCTAACCTGTTGCCT (site AACAATGCTAG)	0.713	–
AACAATGCTTGGGTTCTAACCTGTTGCCT (site AACACTGCTAG)	0.33	–
AACAATGCTTGGGTTCTAACCTGTTGCCT (site AACAGTGCTAG)	0.207	–
AACAATGCTTGGGTTCTAACCTGTTGCCT (site AACATTGCTAG)	0.0444	–
AACAGACCTTGGGTTCTAACCTGTTGCCT (site AACAGACCTAG)	1.62	–
AACAGACCTTGGGTTCTAACCTGTTGCCT (site CACAGACCTAG)	0.116	–
AACAGACCTTGGGTTCTAACCTGTTGCCT (site GACAGACCTAG)	0.291	–
AACAGACCTTGGGTTCTAACCTGTTGCCT (site TACAGACCTAG)	0.686	–
AACAGGGCTTGGGTTCTAACCTGTTGCCG (site AACAGGGCTCG)	1.22	–
AACAGGGCTTGGGTTCTAACCTGTTGCCG (site TGGCATCCTAC)	0.0251	–
AACAGGTCTTGGGTTCTAACCTGTTGCCT (site AACAGGTCTAG)	0.902	–
AACAGGTCTTGGGTTCTAACCTGTTGCCT (site ACCAGGTCTAG)	0.175	–
AACAGGTCTTGGGTTCTAACCTGTTGCCT (site AGCAGGTCTAG)	0.0529	–
AACAGGTCTTGGGTTCTAACCTGTTGCCT (site ATCAGGTCTAG)	0.0485	–
AACATTCCTTGGGTTCTAACCTGTTGCCT (site AACATTCCTAG)	0.151	–
AACATTCCTTGGGTTCTAACCTGTTGCCT (site CACATTCCTAG)	0	–
AACATTCCTTGGGTTCTAACCTGTTGCCT (site GACATTCCTAG)	0.355	–
AACATTCCTTGGGTTCTAACCTGTTGCCT (site TACATTCCTAG)	0.0261	–

Sequence	recombinant barcode read abundance (log10) [1]	recombinant UMI read abundance (log10) [2]
AACATTGCTTGGGTTCTAACCTGTTGCCT (site AACAATGCTAG)	0.765	–
AACATTGCTTGGGTTCTAACCTGTTGCCT (site AACACTGCTAG)	0.695	–
AACATTGCTTGGGTTCTAACCTGTTGCCT (site AACAGTGCTAG)	0.372	–
AACATTGCTTGGGTTCTAACCTGTTGCCT (site AACATTGCTAG)	0.979	–
AACCATCCTTGGGTTCTAACCTGTTGCCT (site AACCAGCCTAG)	0.0589	–
AACCATCCTTGGGTTCTAACCTGTTGCCT (site AACCATCCTAG)	1.51	–
AACCTTACTTGGGTTCTAACCTGTTGCCT (site AACCTTACTAG)	0.631	–
AACCTTACTTGGGTTCTAACCTGTTGCCT (site ACCCTTACTAG)	0.122	–
AACCTTACTTGGGTTCTAACCTGTTGCCT (site AGCCTTACTAG)	0.0388	–
AACCTTACTTGGGTTCTAACCTGTTGCCT (site ATCCTTACTAG)	0.0245	–
AACGAGTCTTGGGTTCTAACCTGTTGCCT (site AACGAGTCTAG)	1.03	–
AACGAGTCTTGGGTTCTAACCTGTTGCCT (site ACCGAGTCTAG)	0.152	–
AACGAGTCTTGGGTTCTAACCTGTTGCCT (site AGCGAGTCTAG)	0.0187	–
AACGAGTCTTGGGTTCTAACCTGTTGCCT (site ATCGAGTCTAG)	0.244	–
TTTGCGGCATGGACCGGTTTTCCCGGTAATCCGTATTTGCT (site TTTGGGGCTAG)	–	0.00746
TTTGCGGCATGGACCGGTTTTCCCGGTAATCCGTATTTGCT (site TTTGTGGCTAG)	–	0.00957
TTTGCGGCATGGACCGGTTTTCCCGGTAATCCGTATTTGCT (site TTTTCGGCTAG)	–	0.00374
TTTGGCACATGGACCGGTTTTCCCGGTAATCCGTATTTGGC (site TTTGGCACTGC)	–	0.00668
TTTGGGGCATGGACCGGTTTTCCCGGTAATCCGTATTTGCT (site TTTGAGGCTAG)	–	0.621
TTTGGGGCATGGACCGGTTTTCCCGGTAATCCGTATTTGCT (site TTTGCGGCTAG)	–	0.00428
TTTGGGGCATGGACCGGTTTTCCCGGTAATCCGTATTTGCT (site TTTGGGGCTAG)	–	1.61
TTTGGGGCATGGACCGGTTTTCCCGGTAATCCGTATTTGCT (site TTTGTGGCTAG)	–	0.0107
TTTGTAGCATGGACCGGTTTTCCCGGTAATCCGTATTTGGA (site TTTGTAGCTTC)	–	0.00646
TTTGTGTCATGGACCGGTTTTCCCGGTAATCCGTATTTGCG (site TTTGTGTCTCG)	–	0.535
TTTGTTTCATGGACCGGTTTTCCCGGTAATCCGTATTTGTT (site TTTGTTTCTAA)	–	0
